Assay results: US12486239B2, “Benzotriazole compound, light absorber, and resin composition” (MITSUI CHEMICALS, INC., priority 2019, dated 2025)

Experiments:
Format in all cases: physicochemical
[1] = Maximum absorption wavelength and gram absorption coefficient, toluene solution 0.01 g/L (first embodiment); conditions: optical path length 10 mm
Protocol: (§1) The maximum absorption wavelength of the benzotriazole compound of the first embodiment is measured using a spectrophotometer (for example, Shimadzu Spectrophotometer UV-1600 manufactured by Shimadzu Corporation) at an optical path length of 10 mm using a toluene solution having a concentration of 0.01 g/L.
(§2) In Examples according to the first embodiment, the maximum absorption wavelength and the gram absorption coefficient of the benzotriazole compound were measured using a Shimadzu Spectrophotometer UV-1600 manufactured by Shimadzu Corporation at an optical path length of 10 mm using a toluene solution having a concentration of 0.01 g/L.

[2] = Heat resistance: TG5% decomposition temperature; conditions: nitrogen atmosphere, heating rate 10° C./min; for T-5% by mass: Table 2; for Decomposition temperature (Tg-5% by mass): Table 6
Protocol: In each Example and Comparative Example, the decomposition temperature was measured by the following method.
Using a thermal analyzer Rigaku ThermoPlus Evo TG8120, the TG5% decomposition temperature (T-5% by mass) was measured under a nitrogen atmosphere at a heating rate of 10° C./min and a temperature range of from room temperature to 500° C.
The higher the T-5% by mass, the higher the heat resistance.
The decomposition temperature of the benzotriazole compound obtained in each Example and Comparative Example was measured by the following method.

[3] = Solubility to various organic solvents; conditions: room temperature; for Solubility to various organic solvents: PGMEA / Solubility to various organic solvents: Ethyl acetate / Solubility to various organic solvents: MEK / Solubility to various organic solvents: MMA / Solubility to various organic solvents: Toluene: Table 1; for Solubility to various organic solvents: MEK / Solubility: MEK: methyl ethyl ketone; for Solubility to various organic solvents: MMA / Solubility: MMA: methyl methacrylate
Protocol: As Comparative Example 1, the solubility of TINUVIN326 (manufactured by BASF Japan Ltd.) represented by the following Formula (TI) was measured by the following method.
(§3) To 0.5 g of the benzotriazole compound, the various organic solvents shown in Table 1 were added such that the total mass was about 10 g, the mixture was irradiated with ultrasonic waves for about 30 minutes, and thereafter stirred at room temperature for 2 hours to prepare a dispersion of about 10% by mass.
The dispersion was filtered through a membrane filter (0.2 μm), and the obtained residue was dried in a dryer at 60° C. for 1 hour, and then the mass of the residue was measured.
The solubility of the benzotriazole compound to the solvent was expressed by the following formula. Solubility (% by mass)=(W0−W1)/W0
W0 is the mass of the benzotriazole compound before the treatment, and W1 is the mass of the residue after drying (that is, the dissolution residue of the benzotriazole compound). In a case in which no residue remained on the filter, the solubility was determined as 5% by mass or more.
The solubility of the benzotriazole compound obtained in each Example and Comparative Example was measured by the following method.
as §3, with “Table 6” for “Table 1”

[4] = Maximum absorption wavelength and gram absorption coefficient, toluene solution 0.002 g/L (second embodiment); conditions: optical path length 10 mm
Protocol: as §1, with “second” for “first”, “at” for “at an”, “0.002” for “0.01”
as §2, with “second” for “first”, “0.002” for “0.01”

Structure (SMILES)	gram absorption coefficient [1]	maximum absorption [1] [nm]	T-5% by mass [2] [°C]	Solubility to various organic solvents: PGMEA ([3]; PGMEA)	Solubility to various organic solvents: Ethyl acetate ([3]; ethyl acetate)	Solubility to various organic solvents: MEK [3]	Solubility to various organic solvents: MMA [3]	Solubility to various organic solvents: Toluene [3]	also measured
CCNc1cc(O)c(-n2nc3ccc(OC)cc3n2)cc1C [Compound (111)]	1.04×10^5 g/mL·cm	378.5	252.6	3 % by mass	5 % by mass	10 % by mass	4 % by mass	1 % by mass	–
O=C(Nc1ccc(-n2nc3ccc(Cl)cc3n2)c(O)c1)C1CCCCC1 [Compound (103)]	8.48×10^4 g/mL·cm	359.0	335.7	–	–	–	–	–	–
Cc1cc(-n2nc3ccc(Cl)cc3n2)c(O)c(C(C)(C)C)c1 [TINUVIN326, 2-(5-chloro-2-benzotriazol)-6-tert-butyl-p-cresol, reference compound]	–	–	219.2	1 % by mass	3 % by mass	3 % by mass	5 % by mass	5 or more % by mass	Solubility: PGMEA ([3]; Table 6, PGMEA): 1 % by mass; Solubility: EA ([3]; Table 6, ethyl acetate): 3 % by mass; Solubility: MEK ([3]; Table 6): 3 % by mass; Solubility: MMA ([3]; Table 6): 5 % by mass; Solubility: Toluene ([3]; Table 6): 5≤ % by mass; Decomposition temperature (Tg-5% by mass) [2]: 219.2 °C; Decomposition temperature (Tg-5% by mass) ([2]; listed as Comparative Example 1C): lower than that of Examples
CCCCC(CC)C(=O)Nc1ccc(-n2nc3ccc(Sc4ccc(C(C)(C)C)cc4)cc3n2)c(O)c1 (stereo not drawn) [Compound (58)]	6.61×10^4 g/mL·cm	371.5	374.7	2 % by mass	3 % by mass	5 or more % by mass	5 or more % by mass	2 % by mass	–
Oc1cc(NC2CCCCC2)ccc1-n1nc2ccc(Cl)cc2n1 [Compound (4)]	9.76×10^4 g/mL·cm	389.5	–	–	–	–	–	–	–
CCC(C)(C)C(=O)Nc1ccc(-n2nc3ccc(Sc4ccc(C(C)(C)C)cc4)cc3n2)c(O)c1 [Compound (101)]	7.02×10^4 g/mL·cm	371.5	366.1	1 % by mass	1.5 % by mass	3 % by mass	3 % by mass	1 % by mass	–
Cc1cc(-n2nc3ccc(SCCOCCSc4ccc5nn(-c6cc(C)cc(C(C)(C)C)c6O)nc5c4)cc3n2)c(O)c(C(C)(C)C)c1 [Compound D2]	–	–	–	–	–	–	–	–	gram absorption coefficient [4]: 63500 mL/g/cm; maximum absorption [4]: 368.0 nm; Solubility: MEK ([3]; Table 6): 3≤ % by mass; Solubility: MMA ([3]; Table 6): 3≤ % by mass; Solubility: Toluene ([3]; Table 6): 3≤ % by mass; Decomposition temperature (Tg-5% by mass) [2]: 322.2 °C
CC(C)(C)c1ccc(CSc2ccc3nn(-c4ccc(NC(=O)C5CCCCC5)cc4O)nc3c2)cc1 [Compound (104)]	6.90×10^4 g/mL·cm	371.0	313.1	–	–	–	–	–	–
O=C1CCc2cc(-n3nc4ccc(Cl)cc4n3)c(O)cc2N1 [Compound (105)]	7.28×10^4 g/mL·cm	365.5	–	–	–	–	–	–	–

The next lines start with results.

gram absorption coefficient [1]	maximum absorption [1] [nm]	T-5% by mass [2] [°C]	Solubility to various organic solvents: PGMEA ([3]; PGMEA)	Solubility to various organic solvents: Ethyl acetate ([3]; ethyl acetate)	Solubility to various organic solvents: MEK [3]	Solubility to various organic solvents: MMA [3]	Solubility to various organic solvents: Toluene [3]	Structure (SMILES)	also measured
6.1×10^4 g/mL·cm	355	–	–	–	–	–	–	CCCCCCC(=O)N(c1ccccc1)c1ccc(-n2nc3ccc(Cl)cc3n2)c(O)c1 [Compound (22)]	–
5.19×10^4 g/mL·cm	347.0	–	–	–	–	–	–	CC(=O)Nc1ccc(-n2nc3ccc(Cl)cc3n2)c(O)c1 [Compound (102)]	–
9.37×10^4 g/mL·cm	360.0	–	–	–	–	–	–	O=C(Nc1ccc(-n2nc3ccc(Cl)cc3n2)c(O)c1)c1ccccc1 [Compound (61)]	–
1.07×10^5 g/mL·cm	372.5	230.1	–	–	–	–	–	CCN(CC)C(=O)Nc1ccc(-n2nc3ccc(Cl)cc3n2)c(O)c1 [Compound (81)]	–
6.98×10^4 g/mL·cm	371.5	365.5	1 or more % by mass	1 or more % by mass	2.5 or more % by mass	2 or more % by mass	0.5 or more % by mass	CCCCC(CC)C(=O)Nc1ccc(-n2nc3ccc(Sc4ccc(C)cc4)cc3n2)c(O)c1 (stereo not drawn) [Compound (113)]	–
7.10×10^4 g/mL·cm	371.0	359.7	0.3 % by mass	0.3 % by mass	1 % by mass	0.5 % by mass	0.3 % by mass	CCCCCCCCSc1ccc2nn(-c3ccc(NC(=O)CCCCCC)cc3O)nc2c1 [Compound (54)]	–
7.48×10^4 g/mL·cm	359.0	312.7	0.8 % by mass	0.8 % by mass	2 % by mass	1.2 % by mass	0.2 % by mass	CCCCC(CC)C(=O)Nc1ccc(-n2nc3ccc(Cl)cc3n2)c(O)c1 (stereo not drawn) [Compound (56)]	–
7.47×10^4 g/mL·cm	370.0	368.0	2 or more % by mass	3 or more % by mass	10 or more % by mass	4 or more % by mass	1 or more % by mass	CCCCC(CC)C(=O)Nc1ccc(-n2nc3ccc(Sc4ccccc4)cc3n2)c(O)c1 (stereo not drawn) [Compound (112)]	–
6.9×10^4 g/mL·cm	371.0	359.4	5 or more % by mass	5 % by mass	5 % by mass	5 or more % by mass	2 % by mass	CCCCCCC(=O)Nc1ccc(-n2nc3ccc(Sc4ccc(C(C)(C)C)cc4)cc3n2)c(O)c1 [Compound (55)]	–
8.40×10^4 g/mL·cm	359.0	309.1	5 or more % by mass	5 or more % by mass	5 or more % by mass	5 or more % by mass	2 % by mass	CCC(C)(C)C(=O)Nc1ccc(-n2nc3ccc(Cl)cc3n2)c(O)c1 [Compound (59)]	–
9.77×10^4 g/mL·cm	387	–	–	–	–	–	–	CCCCCNc1ccc(-n2nc3ccc(Cl)cc3n2)c(O)c1 [Compound (3)]	–
7.9×10^4 g/mL·cm	359.0	323.5	1 % by mass	1 % by mass	1 % by mass	1 % by mass	0.5 % by mass	CCCCCCC(=O)Nc1ccc(-n2nc3ccc(Cl)cc3n2)c(O)c1 [Compound (53)]	–
